What follows are compounds tested against T1, Human autotaxin enzyme (Homo sapiens, UniProt Q13822) (assay: Evaluation of autotaxin inhibitor, Method C (Test Example 3): 18:0 Lyso PC, choline assay, Resorufin fluorescence). Conditions: Assay Method C (Test Example 3), human autotaxin, 18:0 Lyso PC substrate; read-out: Inhibitory Activity (autotaxin enzyme inhibitory activity, IC50 class).
T1 construct: purchased R&D System
Assay type: biochemical
Outline: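 Human autotaxin in Tris-HCl pH 7.5, 150 mM NaCl, 5 mM MgCl2, 0.05% Triton X-100 reacted 2 h at room temperature with 18:0 Lyso PC (200 μM solution added). Released choline detected via choline oxidase/peroxidase/Amplex-type reagent, resorufin fluorescence (ex 531/em 598 nm); inhibition vs no-compound and no-enzyme controls, concentration-response curve.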

| IC50 [nM] | SMILES |
| --- | --- |
| 100 to 1000 | CCCCCn1c(-c2cnccc2OC)cc(=O)n2cc(-c3ccc(Cl)cc3)nc12 [Compound 455] |
| 10 to 100 | CCCCCn1c(N2CCC[C@H]2CC(=O)O)cc(=O)n2cc(-c3ccc(Cl)cc3)nc12 [Compound 599] |
| < 10 | CCCCCn1c(N2CCC[C@H]2C(=O)N(C)CC(=O)O)cc(=O)n2cc(-c3ccc(Cl)cc3)nc12 [Compound 353] |
| 10 to 100 | CCCCCn1c(N2CCC[C@H]2C(=O)N(C)CCC#N)cc(=O)n2cc(-c3ccc(Cl)cc3)nc12 [Compound 336] |
| 100 to 1000 | CCCCCn1c(-c2ccccc2NS(C)(=O)=O)cc(=O)n2cc(-c3ccc(Cl)cc3)nc12 [Compound 440] |
| 10 to 100 | CCCCCn1c(-c2ccc(C(=O)NCCS(=O)(=O)N3CCCC3)cc2)cc(=O)n2cc(-c3ccc(Cl)cc3)nc12 [Compound 513] |
| > 1000 | CCCCCn1c(N2CCCC(C3CCCCC3)C2)cc(=O)n2cc(-c3ccc(Cl)cc3)nc12 (centres unmarked) [Compound 307] |
| 100 to 1000 | CCCCCn1c(N2CCCC[C@H]2C(=O)O)cc(=O)n2cc(-c3ccc(Cl)cc3)nc12 [Compound 604] |
| 100 to 1000 | CCCCCn1c(N2CCC[C@H]2C(=O)N2CCC(C(N)=O)C2)cc(=O)n2cc(-c3ccc(Cl)cc3)nc12 (some centres unmarked) [Compound 701] |
| < 10 | CCCCCn1c(N2CCC[C@H]2CC(=O)NCCC(=O)O)cc(=O)n2cc(-c3ccc(Cl)cc3)nc12 [Compound 615] |
| < 10 | CCCCCn1c(N2CCC[C@H]2C(=O)N[C@@H](CC)C(=O)O)cc(=O)n2cc(-c3ccc(Cl)cc3)nc12 [Compound 729] |
| < 10 | CCCCCn1c(-c2cnc(C(=O)NCCN3CC4(COC4)C3)nc2)cc(=O)n2cc(-c3ccc(Cl)cc3)nc12 [Compound 535] |
| 10 to 100 | CCCCCn1c(N2C[C@H](O)C[C@H]2C(=O)NC(C)(C)CC(=O)OCC)cc(=O)n2cc(-c3ccc(Cl)cc3)nc12 [Compound 597] |
| 100 to 1000 | CCCCCn1c(/N=C(\C)OCCCOCOC)cc(=O)n2cc(-c3ccc(Cl)cc3)nc12 [Compound 563] |
| 10 to 100 | CCCCCn1c(-c2cnc(OC)nc2)cc(=O)n2cc(-c3ccc(Cl)cc3)nc12 [Compound 373] |
| 100 to 1000 | CCn1c(N2CCC[C@H]2C(=O)N[C@@H](Cc2ccccc2)C(=O)O)cc(=O)n2cc(-c3ccc(Cl)cc3)nc12 [Compound 755] |
| 100 to 1000 | CCCCCn1c(NCCC(=O)NCCC(=O)O)cc(=O)n2cc(-c3ccc(Cl)cc3)nc12 [Compound 617] |
| > 1000 | CCCCCn1c(C)cc(=O)n2cc(-c3ccc(C(=O)O)cc3)nc12 [Compound 166] |
| 10 to 100 | CN(C)CCNC(=O)c1ccc(-c2cc(=O)n3cc(-c4ccc(Cl)cc4)nc3n2CCCC(F)(F)F)cc1 [Compound 381] |
| 10 to 100 | CCCCCn1c(-c2ccc(NC(=O)N3CCOCC3)cc2)cc(=O)n2cc(-c3ccc(Cl)cc3)nc12 [Compound 437] |
| 10 to 100 | CCCCCn1c(N2CCC[C@@H](C(=O)NCCC(=O)O)C2)cc(=O)n2cc(-c3ccc(Cl)cc3)nc12 [Compound 624] |
| > 1000 | CCCCCn1c(N2CCNC[C@H]2C(=O)O)cc(=O)n2cc(-c3ccc(Cl)cc3)nc12 [Compound 660] |
| < 10 | CCCCCn1c(N2CCC[C@H](C(=O)NCC(=O)O)C2)cc(=O)n2cc(-c3ccc(Cl)cc3)nc12 [Compound 629] |
| 100 to 1000 | CCCCCn1c(OCC2CCN(C(=O)OC(C)(C)C)C2)cc(=O)n2cc(-c3ccc(Cl)cc3)nc12 (centres unmarked) [Compound 553] |
| > 1000 | O=c1cc(Cl)[nH]c2nc([C@H]3CC[C@H](C(F)(F)F)CC3)cn12 [Compound 135, 7-chloro-2-((1r,4r)-4-(trifluoromethyl)cyclohexyl)imidazo[1,2-a]pyrimidin-5(8H)-one] |
| > 1000 | CCCCCn1c(N2C[C@H](F)C[C@H]2C(=O)O)cc(=O)n2cc(-c3ccc(Cl)cc3)nc12 [Compound 587] |
| > 1000 | CCCCCn1c(N2CC3CN(C(=O)OC(C)(C)C)CC3C2)cc(=O)n2cc(-c3ccc(Cl)cc3)nc12 (centres unmarked) [Compound 314] |
| 100 to 1000 | CCCCCn1c(N2CCC[C@H]2C(=O)N2CCCC(C(=O)OCC)C2)cc(=O)n2cc(-c3ccc(Cl)cc3)nc12 (some centres unmarked) [Compound 696] |

| IC50 [nM] | SMILES |
| --- | --- |
| 10 to 100 | CCCCCn1c(-c2cncnc2)cc(=O)n2cc(-c3ccc(Cl)cc3)nc12 [Compound 409] |
| 100 to 1000 | CCn1c(N2CCC[C@H]2C(=O)NCC(=O)O)cc(=O)n2cc(-c3ccc(Cl)cc3)nc12 [Compound 756] |
| 10 to 100 | CCCCCn1c(NCCCCC(=O)O)cc(=O)n2cc(-c3ccc(Cl)cc3)nc12 [Compound 611] |
| 100 to 1000 | Cc1cc(=O)n2cc(-c3ccc(Cl)cc3)nc2n1Cc1c(F)cccc1F [Compound 119] |
| 10 to 100 | CCn1c(N2C[C@H](O)C[C@H]2C(=O)N[C@@H](C)C(=O)O)cc(=O)n2cc(-c3ccc(Cl)cc3)nc12 [Compound 766] |
| 100 to 1000 | CCCCCn1c(OC2CCN(CC(=O)N3CCOCC3)CC2)cc(=O)n2cc(-c3ccc(Cl)cc3)nc12 [Compound 548] |
| 10 to 100 | CCCCCn1c(N2CCC[C@H]2C(=O)NC(CO)C(=O)OC)cc(=O)n2cc(-c3ccc(Cl)cc3)nc12 (some centres unmarked) [Compound 686] |
| < 10 | CCCCCn1c(N2CCC[C@H]2C(=O)N[C@H](CCCC)C(=O)O)cc(=O)n2cc(-c3ccc(Cl)cc3)nc12 [Compound 738] |
| 10 to 100 | CCCCCn1c(N2CCNC(C(=O)NCCC(=O)O)C2)cc(=O)n2cc(-c3ccc(Cl)cc3)nc12 (centres unmarked) [Compound 662] |
| 10 to 100 | N#CCCCCn1c(N2CCC(C(=O)O)CC2)cc(=O)n2cc(-c3ccc(Cl)cc3)nc12 [Compound 282] |
| 100 to 1000 | CCCCCn1c(C2=CCN(C(=O)OC(C)(C)C)CC2)cc(=O)n2cc(-c3ccc(Cl)cc3)nc12 [Compound 541] |
| 10 to 100 | CCCCCn1c(NCCCC(=O)O)cc(=O)n2cc(-c3ccc(Cl)cc3)nc12 [Compound 607] |
| 10 to 100 | CCCCCn1c(O[C@H]2CCN(CCC(=O)O)C2)cc(=O)n2cc(-c3ccc(Cl)cc3)nc12 [Compound 576] |
| 10 to 100 | CCCCCn1c(N2CCC[C@H]2C(=O)NC2CCCCNC2=O)cc(=O)n2cc(-c3ccc(Cl)cc3)nc12 (some centres unmarked) [Compound 694] |
| < 10 | CCCCCn1c(N2CCC[C@H]2C(=O)NC(C)C(=O)O)cc(=O)n2cc(-c3ccc(Cl)cc3)nc12 (some centres unmarked) [Compound 737] |
| 10 to 100 | CCCCCn1c(N2CCC[C@H]2C(=O)N[C@@H](C)C(=O)OC)cc(=O)n2cc(-c3ccc(Cl)cc3)nc12 [Compound 690] |
| > 1000 | CCCCCn1c(N(C)C(C)=O)cc(=O)n2cc(-c3ccc(Cl)cc3)nc12 [Compound 361] |
| 100 to 1000 | CCCCCn1c(N2CCC[C@H]2C(=O)NCCN2CCCCC2)cc(=O)n2cc(-c3ccc(Cl)cc3)nc12 [Compound 643] |
| 10 to 100 | CCCCCn1c(N2CCC[C@H]2C(=O)NCCCO)cc(=O)n2cc(-c3ccc(Cl)cc3)nc12 [Compound 339] |
| < 10 | C[C@H](NC(=O)[C@@H]1CCCN1c1cc(=O)n2cc(-c3ccc(Cl)cc3)nc2n1Cc1ccccc1)C(=O)O [Compound 748] |
| 10 to 100 | CCCCCn1c(-c2ccc(C(=O)NCC(=O)N(C)C)cc2)cc(=O)n2cc(-c3ccc(Cl)cc3)nc12 [Compound 496] |
| 100 to 1000 | CCCCCn1c(N2CCC[C@H]2C(=O)NCCCN(C)C(=O)OC(C)(C)C)cc(=O)n2cc(-c3ccc(Cl)cc3)nc12 [Compound 655] |
| 100 to 1000 | CCCCCn1c(-c2cccc(C(=O)NCc3ccccc3)c2)cc(=O)n2cc(-c3ccc(Cl)cc3)nc12 [Compound 428] |
| > 1000 | CCCCCn1c(N2CCC[C@H]2C(=O)NCCCN)cc(=O)n2cc(-c3ccc(Cl)cc3)nc12 [Compound 352] |
| 10 to 100 | O=C(NCCN1CC2(COC2)C1)c1ccc(-c2cc(=O)n3cc([C@H]4CC[C@H](C(F)(F)F)CC4)nc3n2CCCC(F)(F)F)cc1 [Compound 165] |
| 10 to 100 | CCCCCn1c(-c2ccc3[nH]c(=O)[nH]c3c2)cc(=O)n2cc(-c3ccc(Cl)cc3)nc12 [Compound 448] |
| < 10 | CCCCCn1c(N2C[C@H](O)C[C@H]2C(=O)NC(C)(C)CC(=O)O)cc(=O)n2cc(-c3ccc(Cl)cc3)nc12 [Compound 585] |

Same assay, conditions: Assay Method C, human autotaxin, 18:0 Lyso PC substrate; read-out: Inhibitory Activity

| IC50 [nM] | SMILES |
| --- | --- |
| 100 to 1000 | N#CCCNC(=O)Cc1cn(CCCC(F)(F)F)c2nc(-c3ccc(Cl)cc3)cn2c1=O [Compound 830] |
| > 1000 | O=C1CN(C(=O)Cc2cn(CCCC(F)(F)F)c3nc(-c4ccc(Cl)cc4)cn3c2=O)CCN1 [Compound 847] |
| < 10 | CCCCCn1c(N2CCC[C@H]2C(=O)NCc2nn[nH]n2)cc(=O)n2cc(-c3ccc(Cl)cc3)nc12 [Compound 795] |
| > 1000 | CCCCCn1c(N2CCCCC2CNC(=O)OC(C)(C)C)cc(=O)n2cc(-c3ccc(Cl)cc3)nc12 (centres unmarked) [Compound 806] |
| 10 to 100 | CCCCCn1c(N2CCC[C@H]2C(=O)NC(C)C(O)C(F)(F)F)cc(=O)n2cc(-c3ccc(Cl)cc3)nc12 (some centres unmarked) [Compound 800] |
| > 1000 | N#CNC(=O)Cc1cn(CCCC(F)(F)F)c2nc(-c3ccc(Cl)cc3)cn2c1=O [Compound 835] |
| > 1000 | O=C(Cc1cn(CCCC(F)(F)F)c2nc(-c3ccc(Cl)cc3)cn2c1=O)N[C@H](CO)Cc1ccccc1 [Compound 866] |
| 100 to 1000 | O=C(Cc1cn(CCCC(F)(F)F)c2nc(-c3ccc(Cl)cc3)cn2c1=O)NCc1cc(=O)[nH]o1 [Compound 842] |
| 10 to 100 | O=C(O)c1cccc(Cc2cn(CC3CC3)c3nc(-c4ccc(Cl)cc4)cn3c2=O)c1 [Compound 823] |
| > 1000 | NS(=O)(=O)CCNC(=O)Cc1cn(CCCC(F)(F)F)c2nc(-c3ccc(Cl)cc3)cn2c1=O [Compound 855] |
| < 10 | N#CCCCCn1cc(Cc2cccc(C(=O)O)c2)c(=O)n2cc(-c3ccc(Cl)cc3)nc12 [Compound 824] |
| 100 to 1000 | CCCCCn1c(N2CCC[C@H]2C(=O)Nc2cccc(-c3nn[nH]n3)c2)cc(=O)n2cc(-c3ccc(Cl)cc3)nc12 [Compound 787] |

| SMILES | IC50 [nM] |
| --- | --- |
| O=C(Cc1cn(CCCC(F)(F)F)c2nc(-c3ccc(Cl)cc3)cn2c1=O)N1CCN(CCO)CC1 [Compound 853] | > 1000 |
